Experimental data reported in patent US20200024278A1, “COMPOSITION COMPRISING ANTIBIOTIC COMPOUND AND AN HETEROCYCLIC COMPOUND AND THEIR USE IN PREVENTING OR TREATING BACTERIAL INFECTIONS” (MUTABILIS, priority 2016, published 2020).

How the values were obtained:
Test in all cases: MIC, broth microdilution (CLSI), substance alone or ATB combined with compound at 4 or 8 μg/mL
[1] = tested on: ECO 190317; assay type: cell-based, E. coli; conditions: ECO 190317
How it was run: (§1)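 CLSI M7-A7 broth microdilution. ca-MHB, 5·10^5 CFU/mL log-phase cells, 16-20 h, 35° C, ambient air. Fosfomycin wells + 25 μg/ml glucose-6-phosphate. Visual MIC read.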

[2] = tested on: ECO UFR39; assay type: cell-based, E. coli; conditions: ECO UFR39
How it was run: as §1

[3] = tested on: KPN 6299; assay type: cell-based, K. pneumoniae
How it was run: as §1

[4] = tested on: KPN BAA-1898; assay type: cell-based, K. pneumoniae; conditions: KPN BAA-1898
How it was run: as §1

[5] = tested on: KPN UFR42; assay type: cell-based, K. pneumoniae; conditions: KPN UFR42
How it was run: as §1

[6] = tested on: ECL P99; assay type: cell-based, E. cloacae; conditions: ECL P99
How it was run: as §1

CN(C)c1cc(NC(=O)CNC(C)(C)C)c(O)c2c1C[C@H]1C[C@H]3[C@H](N(C)C)C(O)=C(C(N)=O)C(=O)[C@@]3(O)C(O)=C1C2=O [TGC]
MIC ATB alone ([1]; antibiotic alone): 0.25 µg/mL
MIC ATB combined with Example 1 @8 μg/ml ([1]; with Example 1 @8 μg/ml): <0.031 µg/mL
MIC ATB combined with Example 1 @8 μg/ml ([1]; with Example 1 at 8 μg/ml): <0.031 µg/mL
MIC ATB combined with Example 7 @8 μgml ([1]; with Example 7 at 8 μg/ml): <0.031 µg/mL
MIC ATB combined with Example 9 @4 μg/ml ([1]; with Example 9 @4 μg/ml): <0.031 µg/mL
MIC ATB combined with Example 9 @4 μg/ml ([1]; with Example 9 at 4 μg/ml): <0.031 µg/mL
MIC ATB combined with Example 11 @8 μg/ml ([1]; with Example 11 at 8 μg/ml): <0.031 µg/mL
MIC ATB combined with Example 12 @8 μg/ml ([1]; with Example 12 at 8 μg/ml): <0.031 µg/mL
MIC ATB combined with Example 13 @8 μg/ml ([1]; with Example 13 at 8 μg/ml): <0.031 µg/mL
MIC ATB combined with Example 14 @8 μg/ml ([1]; with Example 14 at 8 μg/ml): <0.031 µg/mL
MIC ATB combined with Example 15 @4 μgml ([1]; with Example 15 at 4 μg/ml): <0.031 µg/mL
MIC ATB combined with Example 16 @4 μg/ml ([1]; with Example 16 at 4 μg/ml): <0.031 µg/mL
MIC ATB alone ([2]; antibiotic alone): 0.5 µg/mL
MIC ATB combined with Example 1 @8 μg/ml ([2]; with Example 1 @8 μg/ml): <0.031 µg/mL
MIC ATB combined with Example 1 @8 μg/ml ([2]; with Example 1 at 8 μg/ml): <0.031 µg/mL
MIC ATB combined with Example 7 @8 μgml ([2]; with Example 7 at 8 μg/ml): <0.031 µg/mL
MIC ATB combined with Example 9 @4 μg/ml ([2]; with Example 9 @4 μg/ml): <0.031 µg/mL
MIC ATB combined with Example 9 @4 μg/ml ([2]; with Example 9 at 4 μg/ml): <0.031 µg/mL
MIC ATB combined with Example 11 @8 μg/ml ([2]; with Example 11 at 8 μg/ml): <0.031 µg/mL
MIC ATB combined with Example 12 @8 μg/ml ([2]; with Example 12 at 8 μg/ml): <0.031 µg/mL
MIC ATB combined with Example 13 @8 μg/ml ([2]; with Example 13 at 8 μg/ml): <0.031 µg/mL
MIC ATB combined with Example 14 @8 μg/ml ([2]; with Example 14 at 8 μg/ml): <0.031 µg/mL
MIC ATB combined with Example 15 @4 μgml ([2]; with Example 15 at 4 μg/ml): <0.031 µg/mL
MIC ATB combined with Example 16 @4 μg/ml ([2]; with Example 16 at 4 μg/ml): <0.031 µg/mL
MIC ATB alone ([3]; antibiotic alone): 1 µg/mL
MIC ATB combined with Example 1 @8 μg/ml ([3]; with Example 1 @8 μg/ml): 1 µg/mL
MIC ATB combined with Example 1 @8 μg/ml ([3]; with Example 1 at 8 μg/ml): 1 µg/mL
MIC ATB combined with Example 7 @8 μgml ([3]; with Example 7 at 8 μg/ml): 1 µg/mL
MIC ATB combined with Example 9 @4 μg/ml ([3]; with Example 9 @4 μg/ml): 0.063 µg/mL
MIC ATB combined with Example 9 @4 μg/ml ([3]; with Example 9 at 4 μg/ml): 0.063 µg/mL
MIC ATB combined with Example 11 @8 μg/ml ([3]; with Example 11 at 8 μg/ml): <0.031 µg/mL
MIC ATB combined with Example 12 @8 μg/ml ([3]; with Example 12 at 8 μg/ml): <0.031 µg/mL
MIC ATB combined with Example 13 @8 μg/ml ([3]; with Example 13 at 8 μg/ml): 0.5 µg/mL
MIC ATB combined with Example 14 @8 μg/ml ([3]; with Example 14 at 8 μg/ml): <0.031 µg/mL
MIC ATB combined with Example 15 @4 μgml ([3]; with Example 15 at 4 μg/ml): <0.031 µg/mL
MIC ATB combined with Example 16 @4 μg/ml ([3]; with Example 16 at 4 μg/ml): <0.031 µg/mL
MIC ATB alone ([4]; antibiotic alone): 1 µg/mL
MIC ATB combined with Example 1 @8 μg/ml ([4]; with Example 1 @8 μg/ml): 1 µg/mL
MIC ATB combined with Example 1 @8 μg/ml ([4]; with Example 1 at 8 μg/ml): 1 µg/mL
MIC ATB combined with Example 7 @8 μgml ([4]; with Example 7 at 8 μg/ml): 1 µg/mL
MIC ATB combined with Example 9 @4 μg/ml ([4]; with Example 9 @4 μg/ml): <0.031 µg/mL
MIC ATB combined with Example 9 @4 μg/ml ([4]; with Example 9 at 4 μg/ml): <0.031 µg/mL
MIC ATB combined with Example 11 @8 μg/ml ([4]; with Example 11 at 8 μg/ml): <0.031 µg/mL
MIC ATB combined with Example 12 @8 μg/ml ([4]; with Example 12 at 8 μg/ml): <0.031 µg/mL
MIC ATB combined with Example 13 @8 μg/ml ([4]; with Example 13 at 8 μg/ml): 1 µg/mL
MIC ATB combined with Example 14 @8 μg/ml ([4]; with Example 14 at 8 μg/ml): <0.031 µg/mL
MIC ATB combined with Example 15 @4 μgml ([4]; with Example 15 at 4 μg/ml): <0.031 µg/mL
MIC ATB combined with Example 16 @4 μg/ml ([4]; with Example 16 at 4 μg/ml): <0.031 µg/mL
MIC ATB alone ([5]; antibiotic alone): 2 µg/mL
MIC ATB combined with Example 1 @8 μg/ml ([5]; with Example 1 @8 μg/ml): 2 µg/mL
MIC ATB combined with Example 1 @8 μg/ml ([5]; with Example 1 at 8 μg/ml): 2 µg/mL
MIC ATB combined with Example 7 @8 μgml ([5]; with Example 7 at 8 μg/ml): 0.5 µg/mL
MIC ATB combined with Example 9 @4 μg/ml ([5]; with Example 9 @4 μg/ml): 0.25 µg/mL
MIC ATB combined with Example 9 @4 μg/ml ([5]; with Example 9 at 4 μg/ml): 0.25 µg/mL
MIC ATB combined with Example 11 @8 μg/ml ([5]; with Example 11 at 8 μg/ml): <0.031 µg/mL
MIC ATB combined with Example 12 @8 μg/ml ([5]; with Example 12 at 8 μg/ml): <0.031 µg/mL
MIC ATB combined with Example 13 @8 μg/ml ([5]; with Example 13 at 8 μg/ml): 2 µg/mL
MIC ATB combined with Example 14 @8 μg/ml ([5]; with Example 14 at 8 μg/ml): <0.031 µg/mL
MIC ATB combined with Example 15 @4 μgml ([5]; with Example 15 at 4 μg/ml): <0.031 µg/mL
MIC ATB combined with Example 16 @4 μg/ml ([5]; with Example 16 at 4 μg/ml): <0.031 µg/mL
MIC ATB alone ([6]; antibiotic alone): 0.5 µg/mL
MIC ATB combined with Example 1 @8 μg/ml ([6]; with Example 1 @8 μg/ml): <0.031 µg/mL
MIC ATB combined with Example 1 @8 μg/ml ([6]; with Example 1 at 8 μg/ml): <0.031 µg/mL
MIC ATB combined with Example 7 @8 μgml ([6]; with Example 7 at 8 μg/ml): 0.25 µg/mL
MIC ATB combined with Example 9 @4 μg/ml ([6]; with Example 9 @4 μg/ml): <0.031 µg/mL
MIC ATB combined with Example 9 @4 μg/ml ([6]; with Example 9 at 4 μg/ml): <0.031 µg/mL
